Data published in article PMC2409895, “Antitumour efficacy of VEGFR2 tyrosine kinase inhibitor correlates with expression of VEGF and its receptor VEGFR2 in tumour models” (British Journal of Cancer, 2004).

Assays:
[1] = system: HUVEC grown in presence of VEGF; test: VEGF-induced HUVEC proliferation (BrdU incorporation); type: cell-based; conditions: Homo sapiens, VEGF 10 ng ml^−1, 72 h
Experimental: (§1) Effect of kinase inhibitors on cell proliferation was measured using BrdU incorporation method using commercially available kits (Roche Diagnostics, Indianapolis, IN, USA). Briefly, HUVEC were seeded in a medium containing 5% FBS in type 1 Collagen-coated 96-well plates and incubated overnight at 37°C, 5% CO2. The medium was aspirated from the cells, and various concentrations of kinase inhibitors in serum-free medium were added to each well. After 30 min, VEGF (10 ng ml^−1) or bFGF (0.3 ng ml^−1) was added to the wells. Cells were incubated for an additional 72 h and BrdU (10 μM) was added during the last 18–24 h of incubation. Data were fitted with a curve described by the equation, y=Vmax × (1−(x/(K+x))), where K is equal to the IC50.

CDK4 = target: T1, CDK4 (Homo sapiens, UniProt P11802); test: CDK4 kinase assay (scintillation proximity); type: biochemical
T1 construct: Each kinase assay was conducted using purified recombinant catalytic domain of the enzyme
T1 sequence (P11802 6-295 limits assumed, species assumed): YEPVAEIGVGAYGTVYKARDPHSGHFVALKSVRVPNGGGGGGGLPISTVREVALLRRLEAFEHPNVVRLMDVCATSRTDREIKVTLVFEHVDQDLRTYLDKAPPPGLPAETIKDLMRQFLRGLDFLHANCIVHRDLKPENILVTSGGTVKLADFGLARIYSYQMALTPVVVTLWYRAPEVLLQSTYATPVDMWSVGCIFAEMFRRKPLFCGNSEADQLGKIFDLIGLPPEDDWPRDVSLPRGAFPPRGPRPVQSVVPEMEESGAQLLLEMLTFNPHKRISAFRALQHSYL
T1 sequence (P24385 whole entry partner, species assumed, the tested form may be a part): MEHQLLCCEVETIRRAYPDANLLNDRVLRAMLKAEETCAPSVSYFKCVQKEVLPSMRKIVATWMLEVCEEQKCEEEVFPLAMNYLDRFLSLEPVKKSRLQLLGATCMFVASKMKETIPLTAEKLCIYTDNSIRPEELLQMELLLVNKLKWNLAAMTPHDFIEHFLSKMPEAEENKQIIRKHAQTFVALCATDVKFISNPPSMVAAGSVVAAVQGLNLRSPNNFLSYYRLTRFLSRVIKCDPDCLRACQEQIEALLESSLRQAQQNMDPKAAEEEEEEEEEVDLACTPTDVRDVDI
Experimental: (§2) Inhibition of several other kinases by small molecules was also determined. Each kinase assay was conducted using purified recombinant catalytic domain of the enzyme. The concentration of ATP and kinase-specific biotinylated peptide in each assay was below the apparent Km of the respective substrate. Inhibition of c-Fms, SRC, and Tie-2 was evaluated by an HTRF format and the inhibition of CDK2, CDK4, EGFR, ErbB2, and Eph-B4 was detected by scintillation proximity assay.

[2] = system: HUVEC grown in presence of bFGF; test: bFGF-induced HUVEC proliferation (BrdU incorporation); type: cell-based; conditions: Homo sapiens, bFGF 0.3 ng ml^−1, 72 h
Experimental: as §1

human VEGFR kinase 1 = target: T2, human VEGFR kinase 1 (Homo sapiens, UniProt P17948); test: VEGFR1 kinase assay (HTRF); type: biochemical
T2 construct: GST-fusion protein encoding the catalytic carboxyl-terminus of human VEGFR kinase 1, 2, or 3; made in house; host or cells: baculovirus expression system
T2 sequence (P17948 827-1158 limits assumed): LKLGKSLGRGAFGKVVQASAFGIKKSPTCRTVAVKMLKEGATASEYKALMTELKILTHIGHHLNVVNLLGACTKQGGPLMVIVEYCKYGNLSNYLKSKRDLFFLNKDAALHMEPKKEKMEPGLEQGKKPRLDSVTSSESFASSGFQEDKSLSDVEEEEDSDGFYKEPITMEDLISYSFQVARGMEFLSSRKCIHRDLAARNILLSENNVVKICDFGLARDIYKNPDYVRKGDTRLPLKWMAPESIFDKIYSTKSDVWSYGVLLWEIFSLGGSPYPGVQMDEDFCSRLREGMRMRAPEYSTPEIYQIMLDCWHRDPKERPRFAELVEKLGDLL
Experimental: (§3) Vascular endothelial growth factor receptor kinase assays were carried out in a homogenous time-resolved fluorescence (HTRF) format in 384-well microtitre plates using a purified, baculovirus-expressed GST-fusion protein encoding the catalytic carboxyl-terminus of human VEGFR kinase 1, 2, or 3. Reactions were initiated by the addition of 10 μl of activated VEGFR kinase (1 nM, 0.1 M HEPES pH 7.5, 0.1 mg ml^−1 BSA, and 0.30 mM DTT) to 10 μl of substrate (360 nM biotin-aminohexyl-EEEEYFELVAKKKK-NH2 peptide, 75 μM ATP, 10 mM MgCl2) and 1 μl of small molecule inhibitor at various concentrations. Plates were incubated at room temperature for 60 min, and the reaction was stopped by the addition of 20 μl 100 mM EDTA. Homogenous time-resolved fluorescence reagents (20 μl 15 nM streptavidin-linked allophycocyanin, 1 nM europium-labelled anti-phosphotyrosine antibody in 0.1 M HEPES, pH 7.5, 0.1 mg ml^−1 BSA) were added and plates were incubated for a minimum of 10 min. The fluorescence at 665 nm was measured with a Victor plate reader (Wallac, Shelton, CT, USA) using a time delay of 50 μs. […] Data were fitted with a curve described by: y=((Vmax × x)/(K+x)+Y2), where Vmax is the upper asymptote, Y2 is the Y intercept, and K is the IC50.

EGFR = target: T3, EGFR (Homo sapiens, UniProt P00533); test: EGFR kinase assay (scintillation proximity); type: biochemical
T3 construct: Each kinase assay was conducted using purified recombinant catalytic domain of the enzyme
T3 sequence (P00533 712-979 limits assumed, species assumed): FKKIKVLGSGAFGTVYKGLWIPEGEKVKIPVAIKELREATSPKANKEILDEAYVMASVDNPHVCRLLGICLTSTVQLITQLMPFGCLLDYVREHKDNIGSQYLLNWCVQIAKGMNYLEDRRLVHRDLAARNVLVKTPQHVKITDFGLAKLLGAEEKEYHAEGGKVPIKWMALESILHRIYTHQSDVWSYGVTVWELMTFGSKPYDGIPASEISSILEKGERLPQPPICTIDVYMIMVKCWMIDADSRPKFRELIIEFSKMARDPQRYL
Experimental: as §2

PC3 xenograft = test: PC3 tumour xenograft growth inhibition; type: in vivo, SCID mice; conditions: for % Inhibition of tumour growth: vs vehicle
Experimental: (§4) Tumours were initiated by injection of tumour cell suspension subcutaneously in 8–12-week-old nude mice, except PC3 tumours that were grown in SCID mice (Charles River Laboratories, Wilmington, MA, USA). When tumours reached a volume of 100–200 mm^3, mice were randomised into groups of eight prior to treatment with VEGFR kinase inhibitors. Animals were treated with kinase inhibitors (10, 30, or 100 mg kg^−1) or vehicle (0.5% hydroxypropyl methyl cellulose, 0.1% Tween 80 in sterile water), administered once or twice daily by oral gavage for 2–3 weeks (till the mean tumour volume reached 1000–1500 mm^3). Tumour volume was measured twice weekly by calipers, using the formula (length × width × width × 0.5), where length was the longest diameter across the tumour, and width was the corresponding perpendicular. Tumour growth inhibition was calculated by change in the slopes of tumour growth for control and treated tumours. The oral dose of GW654652 producing 50% inhibition of tumour growth (ED50, mg kg^−1) was estimated by a programme that performed a weighted nonlinear regression analysis of data using the equation: y=Vmax(1−(x/(K+x))), where K is equal to ED50. All animal studies were carried out with the appropriate institutional ethical committee approval and they met the standards of both the US federal regulations and those required by the UKCCCR guidelines ([Workman et al, 1998]).

Pharmacokinetics in dog = type: in vivo
HN5 xenograft = test: HN5 tumour xenograft growth inhibition; type: in vivo, nude mice; conditions: for % Inhibition of tumour growth: vs vehicle
Experimental: as §4

HT29 xenograft = test: HT29 tumour xenograft growth inhibition; type: in vivo, nude mice; conditions: for % Inhibition of tumour growth: vs vehicle
Experimental: as §4

Eph-B4 = target: T4, Eph-B4 (Homo sapiens, UniProt P54760); test: Eph-B4 kinase assay (scintillation proximity); type: biochemical
T4 construct: Each kinase assay was conducted using purified recombinant catalytic domain of the enzyme
T4 sequence (P54760 615-899 limits assumed): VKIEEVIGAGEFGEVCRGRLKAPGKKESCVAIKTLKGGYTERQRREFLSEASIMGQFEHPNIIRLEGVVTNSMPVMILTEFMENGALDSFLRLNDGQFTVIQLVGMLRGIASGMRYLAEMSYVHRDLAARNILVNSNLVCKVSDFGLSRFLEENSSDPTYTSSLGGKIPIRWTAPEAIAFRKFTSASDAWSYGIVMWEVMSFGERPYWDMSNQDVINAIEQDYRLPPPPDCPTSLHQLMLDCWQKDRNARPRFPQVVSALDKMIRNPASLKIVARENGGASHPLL
Experimental: as §2

human VEGFR kinase 3 = target: T5, human VEGFR kinase 3 (Homo sapiens, UniProt P35916); test: VEGFR3 kinase assay (HTRF); type: biochemical
T5 construct: GST-fusion protein encoding the catalytic carboxyl-terminus of human VEGFR kinase 1, 2, or 3; made in house; host or cells: baculovirus expression system
T5 sequence (P35916 845-1173 limits assumed): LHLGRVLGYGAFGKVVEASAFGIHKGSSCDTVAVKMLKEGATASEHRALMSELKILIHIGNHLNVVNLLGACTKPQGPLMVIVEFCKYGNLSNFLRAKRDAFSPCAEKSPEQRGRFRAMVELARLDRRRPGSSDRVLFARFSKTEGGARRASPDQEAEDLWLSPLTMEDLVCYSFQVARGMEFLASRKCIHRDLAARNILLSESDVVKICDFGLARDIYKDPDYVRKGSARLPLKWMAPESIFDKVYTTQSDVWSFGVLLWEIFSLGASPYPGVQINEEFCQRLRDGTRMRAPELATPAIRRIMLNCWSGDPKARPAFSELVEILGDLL
Experimental: as §3

Pharmacokinetics in mice = type: in vivo, mouse; conditions: mice, oral 10 mg kg^−1; based on 99% protein binding and total plasma concentration
[3] = ratio of IC50 of the kinase to IC50 vs VEGFR-2

## CCS(=O)(=O)c1ccc(OC)c(Nc2nccc(N(C)c3ccc4c(C)n[nH]c4c3)n2)c1 [GW654652, N^2-[5-(ethylsulphonyl)-2-methoxyphenyl]-N^4-methyl-N^4-(3-methyl-1H-indazol-6-yl)pyrimidine-2,4-diamine]
[1]
  IC50: 110 nM
CDK4
  IC50: > 20000 nM
CDK4; [3]
  Fold selectivity vs VEGFR-2, CDK4: >8800
[2]
  IC50: 1980 nM
Human VEGFR kinase 1; mean±s.e.
  IC50: 12 ± 2.6 nM
Human VEGFR kinase 1; [3]
  Fold selectivity vs VEGFR-2, VEGFR-1: 5.3
EGFR; mean±s.e.
  IC50: 1360 ± 420 nM
EGFR; [3]
  Fold selectivity vs VEGFR-2, EGFR: 605
PC3 xenograft; PC3, 30 mg kg^−1 oral once daily
  % Inhibition of tumour growth: 21%
PC3 xenograft; PC3, 100 mg kg^−1 oral once daily
  % Inhibition of tumour growth: 48%
PC3 xenograft; PC3, oral dose producing 50% inhibition of tumour growth
  ED50: 108 ± 50 mg/kg/day
Pharmacokinetics in dog
  pharmacokinetic profile: good pharmacokinetic profile
HN5 xenograft; HN5, 10 mg kg^−1 oral once daily
  % Inhibition of tumour growth: 24%
HN5 xenograft; HN5, 30 mg kg^−1 oral once daily
  % Inhibition of tumour growth: 46%
HN5 xenograft; HN5, 100 mg kg^−1 oral once daily
  % Inhibition of tumour growth: 83%
HN5 xenograft; HN5, oral dose producing 50% inhibition of tumour growth
  ED50: 28 ± 10 mg/kg/day
HT29 xenograft; HT29, 10 mg kg^−1 oral once daily
  % Inhibition of tumour growth: 5%
HT29 xenograft; HT29, 30 mg kg^−1 oral once daily
  % Inhibition of tumour growth: 69%
HT29 xenograft; HT29, 100 mg kg^−1 oral once daily
  % Inhibition of tumour growth: 98%
HT29 xenograft; HT29, oral dose producing 50% inhibition of tumour growth
  ED50: 20 ± 8 mg/kg/day
Eph-B4; mean±s.e.
  IC50: 460 ± 30 nM
Eph-B4; [3]
  Fold selectivity vs VEGFR-2, Eph-B4: 204
Human VEGFR kinase 3; mean±s.e.
  IC50: 2.5 ± 0.5 nM
Human VEGFR kinase 3; [3]
  Fold selectivity vs VEGFR-2, VEGFR-3: 1.1
Pharmacokinetics in mice
  free Cmax: 60 nM
